Results from patent US12343335B2, “Pharmaceutical composition for treating multiple sclerosis on basis of AMPK inhibitory function and zinc homeostasis control function” (ZINCURE CORP., priority 2019, dated 2025).

Columns and labels:
cultivated neurons = assay: Cytosolic zinc level in cultured neurons with FluoZin-3; format: cell-based, mouse; settings: neurons exposed to zinc (300 μM) for 15 minutes, measured for 60 min
Experimental: The mouse cortical neurons used in the present invention were extracted from the brain of a mouse embryo, and cultured in Dulbecco's modified Eagle's medium (DMEM, Gibco, Grand Island, NY, US) supplemented with 5% fetal bovine serum (FBS) and 5% horse serum (HS) under the condition of 95% humidity, 5% CO2 and 37° C. For activation and differentiation of the cells, the cells were grown to a density of 2×10^4 cells in a 24-well tissue culture plate and cultured in MEM medium without FBS and HS before treatment with zinc and compounds.
The present inventors treated FluoZin-3, a substance illuminate fluorescence if it bind to free zinc to cultivated neurons in order to verify the possibility of zinc chelation according to the treatment of 1H10 {(Z)-5-((1H-indol-3-yl)methylene)-2-((3-hydroxyphenyl)amino)thiazol-4(5H)-one} according to an embodiment of the present invention, and then measured cytosolic zinc level in the neurons for 60 min after exposing zinc (300 μM) for 15 minutes and removing the zinc. In addition, 20 μM zinc (ZnCl2) and NewPort Green DCF fluorophore, which emits fluorescence when it bind to zinc, were added to the test tube, and 1H10 of the present invention was treated at various concentrations. Clioquinol, a zinc chelator, and calcium ionophore Phosphorus ionomycin was used as controls. […]

[1] = system: spinal cord of MOG35-55 immunized EAE mice; assay: Immunofluorescence staining of spinal cord of EAE mice; format: in vivo, C57BL/6 female mice
Experimental: The present inventors induced experimental autoimmune encephalomyelitis (EAE), an animal model of multiple sclerosis, by subcutaneously injecting Myelin oligodendrocyte glycoprotein 35-55 (MOG35-55) peptide antigen into C57BL/6 female mice (FIG. 1A). For this, MOG35-55 (Ana spec, USA) and Complete freund's adjuvant (CFA) were first prepared, and MOG35-55 (2 mg/ml) was dissolved in Phosphate buffered saline (lx PBS, Sigma), and then the 25 ml of CFA was prepared by dispending 25 ml of incomplete freund's adjuvant (IFA. Sigma) in a 50 ml conical tube. Then, in a fume hood, Mycobacterium tuberculosis H37Ra (100 mg; Difco, USA) was added to the IFA in order to prepare CFA and store it in the refrigerator after vortexing before use. Thereafter, MOG35-55 and CFA containing Mycobacterium tuberculosis H37Ra was mixed in the same amount and injected into both flanks of the mice. And then Pertussis toxin (4 μg/ml, List Biological Laboratories, USA) was injected intraperitoneally on the day of immunization and on the second day after immunization. After the immunization, the mice's body weight and clinical symptoms were measured every day, and the degree of EAE progression was evaluated based on specific clinical symptoms. More details on this are provided below.
On the 21st day after EAE induction, the present inventors anesthetized mice with urethane and then perfused 4% paraformaldehyde into the heart to fix the spinal cord. After extracting the spinal cord, in order to examine demyelination of activity of microglia/macrophages the cell/macrophage activity of the tissue, immunofluorescence staining was performed with anti-myelin basic protein (MBP) and anti-F4/80 (Microglia/Macrophage) antibodies. In addition, anti-bodies against ionized calcium binding adapter molecule-1 (Iba-1) and anti-CD68 (Cluster of Differentiation 68) used as markers of microglia/macrophages to analyze the phenotype of strongly activated microglia/macrophages in the white matter part of the damaged spinal cord. Double immunofluorescence staining was performed using antibodies against CD8 and matrix metalloproteinase 9 (MMP-9) in order to investigate how AMP-activated protein kinase (AMPK) activity affects the survival of these cells. In addition, double immunofluorescence staining was performed using anti-CD8 and anti-phospho-AMPK antibodies to determine how AMP-activated protein kinase (AMPK) activity affects the survival of these cells in T cells infiltrating the spinal cord. In order to compare and analyze the activity of (MMP-9), immunofluorescence staining was performed using anti-MMP-9 antibodies. To examine the activity of astrocytes in the spinal cord, immunofluorescence staining was performed using anti-glial fibrillary acidic protein (GFAP) antibodies. To compare and analyze the expression of cytokines such as tumor necrosis factor (TNF) alpha and interferon (IFN) gamma, double immunofluorescence staining was performed using anti-TNF-alpha and anti-IFN gamma antibodies. In the same manner as the immunohistochemical method described above, the cryosections were reacted with 3% hydrogen peroxide at room temperature for 15 minutes to remove endogenous peroxidase, and then the primary antibodies, rat anti-MBP (1:200, Abcam, UK), anti-F4/80 (1:100, eBioscience, USA), goat anti-Iba1 (1:500, Abcam), anti-CD68 (1:100, Bio-Rad Laboratories, USA), anti-CD8 (1:50, BD Bioscience), anti-p-AMPK (1:100, Abcam), anti-MMP-9 (1:100, Abcam), anti-GFAP (1:500, Abcam), anti-IFN gamma (1:100, Invitrogen, USA), anti-TNF alpha (1:250, Abcam) antibodies were reacted for 15 hours at 4° C. Then, Alexa Fluor 488-, 594-, 647-conjugated secondary antibodies (1:250, Invitrogen, USA) suitable for the host of each primary antibodies were reacted at room temperature for 2 hours. […]

[2] = spinal cord white matter, day 21 after EAE induction, compared to vehicle only
[3] = spinal cord, day 21 after EAE induction, vs vehicle

Q: Which results are given for `O=C1N=C(Nc2cccc(O)c2)S/C1=C\c1c[nH]c2ccccc12` [1H10, (Z)-5-((1H-indol-3-yl)methylene)-2-((3-hydroxyphenyl)amino)thiazol-4(5H)-one]?
A: increase of intracellular zinc level (FluoZin-3) (cultivated neurons): significantly reduced; phosphorylation of AMPK in CD8+ T cells infiltrated into the spinal cord ([1]; after EAE induction, vs vehicle): significantly decreased; activity of MMP-9 ([1]; spinal cord white matter, EAE, compared to vehicle only): inhibited; activity of astrocytes (GFAP) ([1]; spinal cord white matter, day 21, vs vehicle): significantly inhibited; expression of IFN gamma [1, 2]: increased; expression of TNF alpha [1, 2]: decreased; activated M1-type microglia/macrophages (Iba-1 and CD68 co-expression) ([1]; spinal cord, after EAE induction, vs vehicle): significantly reduced; EAE-induced demyelination (MBP staining) [1, 3]: significantly decreased; activity of microglia/macrophages (F4/80) [1, 3]: significantly decreased
